From patent US20190032014A1, “USING MICROBIOTA METABOLITES TO DIFFERENTIATE NAÏVE T-CELLS AND RELATED METHODS TO INDUCE OR PREVENT INFLAMMATORY CONDITIONS” (THE TEXAS A&M UNIVERSITY SYSTEM, priority 2016, published 2019)
Entries after “also recorded” stand apart in the source; their conditions may differ.

Columns and labels:
CD4+ CD25− naïve T cells [1] = assay: In vitro naïve T cell differentiation, Treg-skew (FoxP3+ by FACS); assay type: cell-based, C57BL/6 mice; details: for effect on % FoxP3+ cells / Treg differentiation: vs DMF control; for % FoxP3+ cells: indole less than 500 μM
Procedure: Mesenteric lymph node (MLN) and spleen are harvested from WT or FOXP3^EGFP C57Bl/6 mice and homogenized. Spleen tissue is subjected to red blood cell lysis and pooled into a single cell suspension for counting. Counted cells are resuspended in sterile FACS buffer (PBS++ with 05% bovine serum albumin) at a concentration of ˜5×10^7 cells/mL and stained for 45 minutes at 4° C. with anti-CD4 and anti-CD25 fluorophore-conjugated monoclonal antibodies (mAb). After two washes, the stained cells are resuspended at ˜6×10^6 cells/mL in FACS buffer and immediately sorted. […] TDMMs are solubilized in DMF at 2 M and used at desired concentrations (e.g., 0.01, 0.1, 0.5 and 1.0 mM) in growth media; DMF in growth media (0.05%) is used as a solvent control.
The % of Treg or Th17 cells are determined based on the expression of signature transcription factors, FoxP3 and Rorγt, respectively. In addition, signature cytokine markers for Treg and Th17, TGFβ or IL-17, respectively, among others are measured using intracellular cytokine staining. Since it is possible that a cell could be positive for FoxP3 and still express some IL-17, the final % of Tregs are determined as the cell population that is FoxP3+TGFβ+ Rorγt-IL-17−. Similarly, the % of Th17 cells are determined as the population that is FoxP3-TGFβ− Rorγt+IL-17+.
(§1) CD4+ CD25− T cells were isolated to high purity (>98%) from the pooled spleen and mesenteric lymph nodes of C57BL/6 mice (Jackson Labs) with a BD FACS Aria II flow cytometer. Fc Block (BD), αCD4-efluor450 (eBioscience clone GK1.5) and αCD25-PECy7 (eBioscience clone PC61.5) antibodies were used for staining before sorting.
(§2) For Th1-skew: 5 ng/mL IL-12 (Peprotech cat. #210-12) and 10 µg/mL αIL-4 (BioXCell clone 11B11) were added to culture. For Th2-skew: 10 ng/mL IL-4 (Peprotech) and 10 μg/mL αIFN-γ (BioXCell clone R4-6A2) were added to culture. For Th17-skew: 10 ng/mL IL-6 (Peprotech), 5 ng/mL IL-23 (R&D), 0.5 ng/mL TGF-β (Peprotech), 10 μg/mL al-4 (BioXCell clone 11B11), and 10 μg/mL αIFN-γ (BioXCell clone R4-6A2) were added to culture. For Treg-skew: 2 ng/mL TGF-β (Peprotech) and 100 U/mL IL-2 (Roche) were added to culture. Sodium Propionate, sodium acetate, sodium butyrate and sodium chloride (all from Sigma-Aldrich) were solubilized in media and added to culture. Indole was solubilized in DMF (both from Sigma-Aldrich) at 2M and brought to final concentration in media. MGCD0103 (Selleck Chemicals) was solubilized in DMF at 2 mM and brought to final concentration in media. A 0.05% DMF solvent control was used for all experiments.

CD4+ CD25− naïve T cells [2] = assay: In vitro naïve T cell differentiation, Th2-skew (IL-4+); assay type: cell-based, C57BL/6 mice; details: Th2 skewing conditions; vs solvent control
Procedure: When naïve CD4+ CD25− cells were cultured 72 hours in αCD3/28 coated wells with Th0-, Th1- or Th2-skew cytokines and indole or solvent control, followed by stimulation with PMA, Ionomycin and Golgi Plug for the last 5 hours of culture, no effect on the % of Th1 and Th2 cells was observed (in contrast to the significant effect that indole has on Treg and Th17 cells; see FIGS. 2A and 2B).
as §1
as §2, with “Indole was solubilized in DMF (both from Sigma-Aldrich) at 2M and brought to final concentration in media. MGCD0103 (Selleck Chemicals) was solubilized in DMF at 2 mM and brought to final concentration in media. A 0.05% DMF solvent control was used for all experiments.” left out

[3] = system: effector T cell proliferation; assay: Suppression assay of effector T cell proliferation by iTregs; assay type: cell-based, mice
Procedure: FOXP3-EGFP naïve CD4+ CD25− cells cultured in αCD3/28 coated wells with Treg-skew cytokines and indole or solvent control were cultured for 72 hours, and assessed for FoxP3 expression and proliferation by CFSE dilution.
Specifically, FIG. 13 graphically illustrates the results of the suppression assay, showing the suppression of T-cell proliferation as determined by IL-2 production (an essential marker of T-cell proliferation) with increased proportions of Tregs added to co-cultures with effector T-cells..
After 72 h, cells are stimulated with PMA/ionomycin (10 ng/mL PMA, […] ionomycin). For flow cytometry, cells are treated with Golgi plug (Brefeldin A) for four hours and then stained with fluorophore-conjugated mAbs against both inflammatory (e.g., IL-6, IL-12, IL-17, TNF-α) and anti-inflammatory (e.g., IL-10, IL-35, TGF-β) cytokines. Samples are stained with the maximum number of antibodies. Furthermore, expression of established Treg markers (FOXP3, CD25hi, CD103, CD62L, GITR, PD-1, CD152, CD127, ICOS, Granzyme-B) [Vignali, D. A., L. W. Collison, and C. J. Workman, Nat Rev Immunol 8(7):523-32. (2008); Chen, J., et al., Int Immunopharmacol 11(5):610-7 (2011)] and markers of an inflammatory phenotype (RORγT) can be analyzed. […] The effect of the TDMMs on suppression of effector T cell proliferation is determined as described for FIG. 4. […]

IL-6 receptor / pSTAT3 = assay: IL-6 receptor levels and STAT3 activity; assay type: cell-based; details: vs control
Procedure: Indole and 5-HI were assessed for impact on TGF-β receptor expression and SMAD2/3 activity. […] Indole and 5-HI were also assessed for impact on IL-6 receptor levels and subsequent STAT3 activity.

mTOR = mTOR activation (% P-S6) in conditioned T cells; assay type: cell-based; details: matured conditioned T cells
Text: The mechanistic target of rapamycin (mTOR) is a core component in multiple protein complexes that have significant influence on various cellular processes including cell growth, differentiation, and even enteropathies in the intestine. Accordingly, the interaction of indole and 5-HI on mTor activation was investigated.

FoxP3+ cells = assay: Homing markers (α4β7, CD62L) on iTreg cells

## c1ccc2[nH]ccc2c1 [Indole, indole]
CD4+ CD25− naïve T cells [1]; 750 μM indole, absence of IL-4
  increase in the % of FOXP3+ cells compared to cells exposed to 1 mM indole: 4%
CD4+ CD25− naïve T cells [1]; 1 mM indole, Treg skewing conditions, solvent control 25%
  proportion of FoxP3+ iTregs: 68.8%
CD4+ CD25− naïve T cells [1]; TGF-β below threshold for Treg induction, low and high titrations
  % FoxP3+ cells with reduced / titrated TGF-β: Treg induction occurs notwithstanding low levels of TGF-β; also recorded: increased the % FoxP3+ cells
CD4+ CD25− naïve T cells [1]; Th0 conditions (no TGF-β)
  FoxP3 induction under Th0 conditions: induced FoxP3 even under Th0 conditions
CD4+ CD25− naïve T cells [1]; Treg skewing conditions
  % FoxP3+ cells, indole, butyrate and 5-HI all combined: the % FoxP3+ increased again
  effect on % FoxP3+ cells / Treg differentiation: significantly increased the % of FoxP3+ cells
CD4+ CD25− naïve T cells [1]; Treg skewing conditions, vs 5-HI alone
  % FoxP3+ cells, indole combined with 5-HI: negated the inhibitory effects of 5-HI on % FoxP3+ cells
CD4+ CD25− naïve T cells [1]; Treg skewing conditions, listed as indole
  effect on % FoxP3+ cells / Treg differentiation: dose-dependent; also recorded: strong pro-Treg response; also recorded: significantly increased the % FoxP3+ cells
CD4+ CD25− naïve T cells [1]; IL-4 6 ng/mL
  % FoxP3+ cells: 25%
CD4+ CD25− naïve T cells [1]; IL-4 10 ng/mL
  % FoxP3+ cells: 28%
CD4+ CD25− naïve T cells [1]; indole-induced iTregs, pre- and post-sort, 72 hours
  per-cell expression of FOXP3 (GFP): higher per-cell expression of FOXP3 (GFP) both pre- and post-sort
CD4+ CD25− naïve T cells [1]; standard TGF-β dose
  expansion of Tregs (Foxp3+ %) at standard TGF-β dose: doubles
CD4+ CD25− naïve T cells [1]; vs solvent control
  level of FoxP3 expression (MFI): significantly increased
CD4+ CD25− naïve T cells [2]
  effect on % Th2 cells (IL-4+): no effect; also recorded: did not influence the development of Th1 and Th2 cells
[3]; indole-conditioned Tregs, 72-hour suppression assay, vs control iTregs (DMF)
  suppression of effector T cell proliferation: suppress effector T cell proliferation function
[3]; indole-induced iTregs vs nTregs or butyrate-induced iTregs
  suppression of T-cell proliferation (IL-2 production): stronger suppressive characteristics, than nTregs or iTregs induced by butyrate
IL-6 receptor / pSTAT3
  % IL-6 receptor+ cells: decrease
  % pSTAT3+ cells / IL-6 induced stat3: decrease
mTOR
  % P-S6 (mTOR activation): significantly reduced
FoxP3+ cells; indole alone
  % of α4β7+ in FoxP3+ cells: increases the % of α4β7+ in FoxP3+ cells
FoxP3+ cells; indole combined with retinoic acid (RA)
  % of α4β7+ in FoxP3+ cells: amplified when combined with retinoic acid (RA)
FoxP3+ cells; indole with acetate, propionate or butyrate at multiple concentrations
  % α4β7+ on iTreg cells: increases α4β7 in the presence of SCFAs, except for high levels of butyrate
FoxP3+ cells; with and without retinoic acid (RA)
  CD62L+ on FoxP3+ cells: increase of CD62L+ on FoxP3+ cells with and without combination with retinoic acid (RA)
